Literature values as cited in patent publication US20090214716A1 (priority 2005, published 2009).

Experiments:
[1] = biological target: T1, A2A receptors that are located on the platelet surface (Homo sapiens, UniProt P29274); conditions: chronic caffeine consumption
T1 construct: up-regulation of endogenous adenosine receptors in normal subjects; host or cells: human platelets of normal subjects (endogenous)

[2] = caffeine 0.3 mg/kg/hr vs placebo

T1 sequence (P29274 whole entry): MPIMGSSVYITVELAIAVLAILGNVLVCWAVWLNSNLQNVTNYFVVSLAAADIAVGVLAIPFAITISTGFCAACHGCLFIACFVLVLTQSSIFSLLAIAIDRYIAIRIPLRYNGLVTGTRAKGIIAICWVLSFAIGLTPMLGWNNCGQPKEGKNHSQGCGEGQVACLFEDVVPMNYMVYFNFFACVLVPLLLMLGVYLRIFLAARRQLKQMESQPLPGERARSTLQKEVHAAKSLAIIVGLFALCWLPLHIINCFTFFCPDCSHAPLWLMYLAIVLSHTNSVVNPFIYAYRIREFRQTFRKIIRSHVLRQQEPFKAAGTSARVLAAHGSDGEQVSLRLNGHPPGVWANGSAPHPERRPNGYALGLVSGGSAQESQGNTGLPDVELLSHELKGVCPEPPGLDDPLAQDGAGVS

Structure (SMILES): Cn1c(=O)c2c(ncn2C)n(C)c1=O [caffeine, 1,3,7-trimethylxanthine]
- platelet aggregability [1]: reduction in platelet aggregability
- effect on endogenous adenosine receptors ([1]; normal subjects): sensitization and/or up-regulation of endogenous adenosine receptors
- performance on cognitive tests [2]: performed better on cognitive tests
- reported sleepiness [2]: reported feeling sleepier than their placebo counterparts
